The values that follow come from patent EP4644375A1, “SUBSTITUTED HYDROQUINOLINES FOR THE TREATMENT OF GLIOBLASTOMA MULTIFORME” (Molius Saglik Teknolojileri Anonim Sirketi, priority 2024, dated 2025).

One data set concerns CMPK2. Description: In vivo GBM rat model: immunohistochemical examination. The settings on record: tumor cells, brain tissues, GBM rats, 30 mg/kg oral, 5 days. An excerpt: (§1) For immunohistochemical examinations, primary antibodies (Ki67 Cat no: ab15580 dilution ratio: 1/100; CMPK2 Cat no: PA5-34461, dilution ratio: 1/100, GFAP Cat no: ab6842 dilution ratio: 1/100) were used. 3-3' Diaminobenzidine (DAB) was used as chromogen. Mayer's hematoxylin was used for counterstaining. Sections were examined under a light microscope (Zeiss AXIO, Germany).
(§2) Individual body weights were manually calculated. Group mean body weights; group mean body weight changes and organ weights were also manually calculated without statistical analysis. To determine the density of positive staining from immunohistochemical and immunofluorescence staining images, five randomly selected areas were evaluated using ZEISS Zen Imaging Software. Data were statistically defined as mean and standard deviation (mean ± SD) for the percentage of the area. One-way ANOVA followed by the Tukey test was performed to compare immunoreactive cells and immune-positive stained areas with healthy controls. GraphPad Prism software was used for analysis.

The test system of another data set is Ki67. The data set is described as above. The settings on record: tumor cells, brain tissues, GBM rats, 30 mg/kg oral, 5 days.
Excerpt: as §1, §2

A further data set deals with GFAP. The data set is described as above. The settings on record: brain tissues, GBM rats, 30 mg/kg oral, 5 days.
Excerpt: as §1, §2

A short description of data set [1]: In vivo GBM rat model: plasma chemistry. Also noted: CREA. / UA / TCHOL / HDLC: unit not given here. The settings on record: for ALP / ALT / AST / CREA. / GLU / HDLC / LDH / LDL C / TCHOL / TG / UA: GBM rats, 30 mg/kg oral, 5 days, plasma at necropsy; for levels of AST, ALT and LDH: in comparison to the levels in untreated GBM rats. As to the method:
The parameters that were analysed can be seen in Table 11.

The next data set relates to H2A.X. Kind of data set: In vivo GBM rat model: double immunofluorescence examination. The settings on record: neurons, brain tissues, GBM rats, 30 mg/kg oral, 5 days. The method, then:
(§3) In immunofluorescence examinations, primary antibody (NOP10 Cat no: ab134902 dilution ratio: 1/100) was applied to tissues and incubated according to the instructions. A fluorescent secondary antibody (FITC Cat No: ab6785 dilution Ratio: 1/1000 UK) was then applied and incubated in the dark for 45 minutes. Afterward, a second primary antibody (H2A.X Cat no: sc-517336 dilution ratio: 1/100) was applied and incubated according to the instructions. A different fluorescent secondary antibody (Texas Red Cat No: ab6719 dilution Ratio: 1/1000 UK) was applied and incubated in the dark for 45 minutes. Finally, DAPI (Cat no: D1306 dilution ratio: 1/200 UK) was applied to the sections for 5 minutes in the dark, followed by covering the tissues with coverslips. The stained tissues were examined under a fluorescence attachment-equipped microscope (Zeiss AXIO, Germany).
as §2

The next data set concerns NOP10. The description is as above. The settings on record: neurons, brain tissues, GBM rats, 30 mg/kg oral, 5 days. As to the method:
as §3, §2

Consider `CC(C)CCOc1ccc2c(c1)CCC(=O)N2` [TR-G002, 6-(isopentyloxy)-3,4-dihydroquinolin-2(1H)-one], for which the “expression of CMPK2” value in the data set with CMPK2 is given as “mild”. Moreover, the “expression of Ki67” value with Ki67 is on record as “mild”. Besides, the “GFAP expression in astrocytes around the tumor” value (“GFAP expression” for short) in the data set on GFAP is on record as “severe”. In data set [1], this molecule registered an ALP of 124.22 IU/L, an ALT of 48.37 IU/L, an AST of 129.93 IU/L and a CREA. of 0.31. Also, in data set [1], the GLU was determined as 317 mg/dL, the HDLC is given as 37.5, the LDH stood at 535.72 IU/L and the “LDL C” value is 4.42 mmol/L. In data set [1], this molecule yielded a TCHOL of 54.38, a TG of 115 mg/dL and a UA of 1.71. In addition, the “expressions of H2AX” value in the data set with H2A.X is recorded as “mild”. In addition, the “expressions of Nopio” value in the data set on NOP10 is “mild”.
Take `O=C1CCc2cc(OS(=O)(=O)c3cccc4ccccc34)ccc2N1` [TR-G045, 2-oxo-1,2,3,4-tetrahydroquinolin-6-yl naphthalene-1-sulfonate]: the “expression of CMPK2” value with CMPK2 was “moderate”. The “expression of Ki67” value in the data set with Ki67 is on record as “moderate”. Besides, the “GFAP expression” value with GFAP is reported as “moderate”. In data set [1], this molecule had an ALP of 138.47 IU/L, an ALT of 54.5 IU/L, an AST of 104.7 IU/L and a CREA. of 0.35. Besides, in data set [1], the GLU stood at 316 mg/dL, the HDLC stood at 37.58, the LDH came to 506.78 IU/L and the “LDL C” value worked out at 5.28 mmol/L. In data set [1], the TCHOL came out at 56.52; the TG came to 120 mg/dL; the UA amounted to 1.6; the “levels of AST, ALT and LDH” value was “significantly decreased”. The “expressions of H2AX” value in the data set on H2A.X was “moderate”. The “expressions of Nopio” value in the data set on NOP10 is recorded as “moderate”.
As to `C=Cc1ccc(COc2ccc3c(c2)CCC(=O)N3)cc1` [TR-G053, 6-((4-vinylbenzyl)oxy)-3,4-dihydroquinolin-2(1H)-one], in the data set on CMPK2, the “expression of CMPK2” value is reported as “severe”. Further, the “expression of Ki67” value in the data set with Ki67 is recorded as “severe”. Also, the “GFAP expression” value in the data set on GFAP is recorded as “mild”. In data set [1], the ALP was 125.67 IU/L, the ALT worked out at 44.57 IU/L, the AST amounted to 96.87 IU/L and the CREA. amounted to 0.34. For the same molecule, in data set [1], the GLU turned out to be 293 mg/dL, the HDLC is given as 34.33, the LDH was 514 IU/L and the “LDL C” value was determined as 5.63 mmol/L. In addition, in data set [1], the TCHOL amounted to 56.33; the TG was found to be 117 mg/dL; the UA was 1.64; the “levels of AST, ALT and LDH” value is on record as “significantly decreased”. Moreover, the “expressions of H2AX” value with H2A.X was “severe”. In addition, the “expressions of Nopio” value in the data set with NOP10 is recorded as “severe”.
Consider `O=C(COc1ccc2c(c1)CCC(=O)N2)N/N=C/c1cnc(-c2ccc(Cl)cc2)nc1` [TR-G066, (E)-N'-((2-(4-chlorophenyl)pyrimidin-5-yl)methylene)-2-((2-oxo-1,2,3,4-tetrahydroquinolin-6-yl)oxy)acetohydrazide], for which, in the data set with CMPK2, the “expression of CMPK2” value is given as “very mild”. For the same molecule, the “expression of Ki67” value in the data set on Ki67 is “very mild”. In addition, the “GFAP expression” value in the data set with GFAP is “very severe”. In data set [1], this molecule gave an ALP of 137.08 IU/L, an ALT of 38.94 IU/L, an AST of 96.48 IU/L and a CREA. of 0.38. Also, in data set [1], the GLU came out at 295 mg/dL, the HDLC turned out to be 34.24, the LDH is 476.16 IU/L and the “LDL C” value amounted to 4.94 mmol/L. In data set [1], the TCHOL stood at 58.56; the TG came out at 122 mg/dL; the UA turned out to be 1.7; the “levels of AST, ALT and LDH” value is on record as “significantly decreased”. In addition, the “expressions of H2AX” value in the data set on H2A.X is reported as “very mild”. In the data set on NOP10, the “expressions of Nopio” value was “very mild”.
Turning to `C=CCOC(=O)COc1ccc2c(c1)CCC(=O)N2` [TR-G071, Allyl 2-((2-oxo-1,2,3,4-tetrahydroquinolin-6-yl)oxy)acetate], the “expression of CMPK2” value with CMPK2 is reported as “moderate”. For the same molecule, the “expression of Ki67” value in the data set with Ki67 is listed as “moderate”. In addition, the “GFAP expression” value in the data set on GFAP is “moderate”. Also, in data set [1], the ALP is 130.5 IU/L, the ALT is 61.25 IU/L, the AST worked out at 132.5 IU/L and the CREA. worked out at 0.34. In data set [1], the GLU was 295 mg/dL, the HDLC was 34.9, the LDH amounted to 504.2 IU/L and the “LDL C” value stood at 5.65 mmol/L. For the same molecule, in data set [1], the TCHOL is 53.35, the TG came to 129 mg/dL and the UA is 1.69. The “expressions of H2AX” value in the data set on H2A.X is on record as “moderate”. Also, in the data set on NOP10, the “expressions of Nopio” value is reported as “moderate”.
Regarding `COc1cc(NC(=O)COc2ccc3c(c2)CCC(=O)N3)cc(OC)c1` [TR-G091, N-(3,5-dimethoxyphenyl)-2-((2-oxo-1,2,3,4-tetrahydroquinolin-6-yl)oxy)acetamide], in the data set on CMPK2, the “expression of CMPK2” value is given as “moderate”. The “expression of Ki67” value with Ki67 is “moderate”. For the same molecule, in the data set on GFAP, the “GFAP expression” value is “Moderate”. In data set [1], this molecule displayed an ALP of 122.87 IU/L, an ALT of 46.97 IU/L, an AST of 127.9 IU/L and a CREA. of 0.29. In data set [1], the GLU stood at 299 mg/dL, the HDLC was determined as 36.57, the LDH was found to be 546.17 IU/L and the “LDL C” value was found to be 5.03 mmol/L. For the same molecule, in data set [1], the TCHOL was 54.43, the TG came to 121 mg/dL and the UA is 1.7. Also, the “expressions of H2AX” value with H2A.X is on record as “moderate”. For the same molecule, the “expressions of Nopio” value with NOP10 is listed as “moderate”.
